From ChEMBL document CHEMBL5291721, “A preclinical secondary pharmacology resource illuminates target-adverse drug reaction associations of marketed drugs” (Nat Commun, 2023)

What was measured:
[1] = molecular target: Delta-type opioid receptor (Homo sapiens, UniProt P41143)
Adenosine receptor A3 = molecular target: T1, Adenosine receptor A3 (Homo sapiens, UniProt P0DMS8)
T1 sequence (P0DMS8 whole entry): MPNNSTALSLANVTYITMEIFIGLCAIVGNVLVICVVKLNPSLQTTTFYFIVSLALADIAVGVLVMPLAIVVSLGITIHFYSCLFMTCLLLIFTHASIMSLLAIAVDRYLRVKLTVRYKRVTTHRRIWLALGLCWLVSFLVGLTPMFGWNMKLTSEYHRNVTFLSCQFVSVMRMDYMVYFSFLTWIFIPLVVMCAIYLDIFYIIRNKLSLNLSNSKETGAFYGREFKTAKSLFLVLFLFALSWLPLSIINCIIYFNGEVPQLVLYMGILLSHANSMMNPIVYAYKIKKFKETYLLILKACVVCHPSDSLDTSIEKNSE

Bile salt export pump = Bile salt export pump (Homo sapiens, UniProt O95342); type: functional
Sequence of Bile salt export pump (O95342 whole entry): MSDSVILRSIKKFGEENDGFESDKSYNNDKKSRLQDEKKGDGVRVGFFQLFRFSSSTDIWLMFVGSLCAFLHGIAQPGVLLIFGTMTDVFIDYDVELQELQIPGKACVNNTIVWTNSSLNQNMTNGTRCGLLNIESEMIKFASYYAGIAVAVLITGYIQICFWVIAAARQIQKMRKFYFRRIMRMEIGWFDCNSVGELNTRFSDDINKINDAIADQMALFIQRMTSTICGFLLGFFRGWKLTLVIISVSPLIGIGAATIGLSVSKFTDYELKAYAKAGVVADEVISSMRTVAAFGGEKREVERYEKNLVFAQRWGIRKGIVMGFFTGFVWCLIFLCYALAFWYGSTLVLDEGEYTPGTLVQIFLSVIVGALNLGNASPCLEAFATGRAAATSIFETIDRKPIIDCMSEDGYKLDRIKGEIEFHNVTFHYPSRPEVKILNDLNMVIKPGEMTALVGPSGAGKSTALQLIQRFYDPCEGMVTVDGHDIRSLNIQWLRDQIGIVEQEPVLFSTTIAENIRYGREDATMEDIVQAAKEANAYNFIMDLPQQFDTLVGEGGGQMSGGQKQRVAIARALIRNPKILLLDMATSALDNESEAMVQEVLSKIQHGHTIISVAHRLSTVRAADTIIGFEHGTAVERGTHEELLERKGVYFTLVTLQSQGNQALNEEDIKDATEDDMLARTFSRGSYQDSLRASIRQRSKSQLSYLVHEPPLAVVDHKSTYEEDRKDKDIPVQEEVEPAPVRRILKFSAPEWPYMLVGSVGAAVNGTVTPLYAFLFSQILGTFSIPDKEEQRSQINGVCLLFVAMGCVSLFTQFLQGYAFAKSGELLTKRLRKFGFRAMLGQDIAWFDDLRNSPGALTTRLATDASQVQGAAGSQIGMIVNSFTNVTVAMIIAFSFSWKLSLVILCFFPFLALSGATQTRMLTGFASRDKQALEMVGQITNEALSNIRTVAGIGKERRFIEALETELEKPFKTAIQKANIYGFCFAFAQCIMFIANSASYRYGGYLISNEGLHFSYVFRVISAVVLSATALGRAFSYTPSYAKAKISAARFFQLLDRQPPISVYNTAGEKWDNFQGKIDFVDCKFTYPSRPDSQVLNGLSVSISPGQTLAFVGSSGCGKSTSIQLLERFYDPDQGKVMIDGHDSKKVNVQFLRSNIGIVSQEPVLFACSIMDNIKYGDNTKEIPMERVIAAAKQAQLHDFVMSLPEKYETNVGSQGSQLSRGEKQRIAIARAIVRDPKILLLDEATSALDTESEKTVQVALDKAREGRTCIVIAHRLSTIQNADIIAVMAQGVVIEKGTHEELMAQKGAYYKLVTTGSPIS

D(3) dopamine receptor = D(3) dopamine receptor (Homo sapiens, UniProt P35462)
Sequence of D(3) dopamine receptor (P35462 whole entry): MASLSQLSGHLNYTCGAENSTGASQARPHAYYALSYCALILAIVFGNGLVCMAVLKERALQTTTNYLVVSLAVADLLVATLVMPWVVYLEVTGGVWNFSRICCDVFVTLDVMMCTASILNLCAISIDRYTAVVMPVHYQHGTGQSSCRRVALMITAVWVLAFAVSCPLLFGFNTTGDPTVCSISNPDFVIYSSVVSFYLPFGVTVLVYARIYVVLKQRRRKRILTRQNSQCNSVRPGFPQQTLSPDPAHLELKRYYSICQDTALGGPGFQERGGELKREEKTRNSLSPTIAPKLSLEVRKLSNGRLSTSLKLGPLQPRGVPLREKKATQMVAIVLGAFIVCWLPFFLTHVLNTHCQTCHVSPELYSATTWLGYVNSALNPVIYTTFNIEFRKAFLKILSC

[2] = molecular target: T2, Prostaglandin G/H synthase 1 (Rattus norvegicus, UniProt Q63921); type: functional
T2 sequence (Q63921 whole entry): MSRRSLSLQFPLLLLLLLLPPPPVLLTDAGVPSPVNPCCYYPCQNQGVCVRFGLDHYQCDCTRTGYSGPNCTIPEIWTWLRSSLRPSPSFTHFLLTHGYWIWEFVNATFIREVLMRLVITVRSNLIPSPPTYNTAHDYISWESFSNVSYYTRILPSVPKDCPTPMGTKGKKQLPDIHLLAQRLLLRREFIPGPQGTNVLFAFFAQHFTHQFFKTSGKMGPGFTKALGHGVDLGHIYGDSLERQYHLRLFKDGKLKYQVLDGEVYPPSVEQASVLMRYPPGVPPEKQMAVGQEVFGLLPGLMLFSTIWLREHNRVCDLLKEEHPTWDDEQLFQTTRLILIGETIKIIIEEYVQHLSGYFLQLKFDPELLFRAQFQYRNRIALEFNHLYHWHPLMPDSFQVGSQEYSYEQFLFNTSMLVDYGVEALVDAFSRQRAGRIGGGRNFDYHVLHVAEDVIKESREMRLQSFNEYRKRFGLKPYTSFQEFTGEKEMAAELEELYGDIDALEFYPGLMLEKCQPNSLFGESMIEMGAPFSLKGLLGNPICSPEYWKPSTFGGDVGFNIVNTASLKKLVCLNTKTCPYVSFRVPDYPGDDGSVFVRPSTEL

[3] = molecular target: T3, 5-hydroxytryptamine receptor 2C (Homo sapiens, UniProt P28335)
T3 sequence (P28335 whole entry): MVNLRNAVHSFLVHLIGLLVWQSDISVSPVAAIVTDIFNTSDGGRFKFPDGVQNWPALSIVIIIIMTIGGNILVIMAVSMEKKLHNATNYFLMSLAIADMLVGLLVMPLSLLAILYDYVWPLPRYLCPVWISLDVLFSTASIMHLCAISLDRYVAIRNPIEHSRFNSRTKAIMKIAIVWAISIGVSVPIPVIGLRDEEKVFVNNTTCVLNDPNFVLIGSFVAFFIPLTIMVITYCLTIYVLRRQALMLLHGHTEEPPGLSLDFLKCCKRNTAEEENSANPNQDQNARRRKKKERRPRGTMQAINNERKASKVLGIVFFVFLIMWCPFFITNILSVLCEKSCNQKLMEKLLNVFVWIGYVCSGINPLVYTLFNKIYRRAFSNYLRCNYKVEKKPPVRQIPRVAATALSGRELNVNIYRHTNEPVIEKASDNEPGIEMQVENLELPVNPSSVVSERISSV

[4] = molecular target: Sodium-dependent dopamine transporter (Homo sapiens, UniProt Q01959)
Sequence of Sodium-dependent dopamine transporter (Q01959 whole entry): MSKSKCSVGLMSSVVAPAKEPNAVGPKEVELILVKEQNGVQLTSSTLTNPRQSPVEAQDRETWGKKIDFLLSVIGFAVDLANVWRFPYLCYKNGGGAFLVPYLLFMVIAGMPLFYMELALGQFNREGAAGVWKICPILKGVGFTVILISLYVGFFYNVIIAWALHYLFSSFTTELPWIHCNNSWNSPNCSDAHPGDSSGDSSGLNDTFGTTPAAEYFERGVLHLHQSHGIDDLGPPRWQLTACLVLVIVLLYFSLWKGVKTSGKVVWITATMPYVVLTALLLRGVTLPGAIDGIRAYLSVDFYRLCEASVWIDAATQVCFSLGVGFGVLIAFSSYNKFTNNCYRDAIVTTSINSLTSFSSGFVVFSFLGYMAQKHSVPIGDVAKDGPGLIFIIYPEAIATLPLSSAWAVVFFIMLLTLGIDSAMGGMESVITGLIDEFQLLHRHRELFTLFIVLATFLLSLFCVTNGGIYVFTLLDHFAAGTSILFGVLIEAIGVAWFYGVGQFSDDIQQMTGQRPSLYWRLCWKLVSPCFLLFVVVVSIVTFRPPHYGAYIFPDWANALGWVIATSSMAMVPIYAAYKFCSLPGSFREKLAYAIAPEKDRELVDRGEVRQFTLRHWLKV

[5] = molecular target: Gamma-aminobutyric acid receptor subunit alpha-1 (Rattus norvegicus, UniProt P62813); type: functional
Sequence of Gamma-aminobutyric acid receptor subunit alpha-1 (P62813 whole entry): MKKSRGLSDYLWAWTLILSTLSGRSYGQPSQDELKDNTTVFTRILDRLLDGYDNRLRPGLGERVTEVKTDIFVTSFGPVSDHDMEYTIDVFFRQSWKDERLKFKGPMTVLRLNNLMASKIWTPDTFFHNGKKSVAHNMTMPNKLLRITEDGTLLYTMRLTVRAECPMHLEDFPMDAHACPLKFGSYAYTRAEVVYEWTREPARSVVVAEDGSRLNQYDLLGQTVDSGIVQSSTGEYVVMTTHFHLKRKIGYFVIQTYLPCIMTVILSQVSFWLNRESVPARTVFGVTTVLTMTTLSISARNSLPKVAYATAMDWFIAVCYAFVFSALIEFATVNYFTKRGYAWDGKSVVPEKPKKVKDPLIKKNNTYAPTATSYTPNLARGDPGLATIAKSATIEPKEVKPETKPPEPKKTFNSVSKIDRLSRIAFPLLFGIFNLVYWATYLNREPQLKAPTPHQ

[6] = molecular target: Sodium-dependent noradrenaline transporter (Homo sapiens, UniProt P23975)
Melanocortin receptor 3 = Melanocortin receptor 3 (Homo sapiens, UniProt P41968)
Sequence of Melanocortin receptor 3 (P41968 whole entry): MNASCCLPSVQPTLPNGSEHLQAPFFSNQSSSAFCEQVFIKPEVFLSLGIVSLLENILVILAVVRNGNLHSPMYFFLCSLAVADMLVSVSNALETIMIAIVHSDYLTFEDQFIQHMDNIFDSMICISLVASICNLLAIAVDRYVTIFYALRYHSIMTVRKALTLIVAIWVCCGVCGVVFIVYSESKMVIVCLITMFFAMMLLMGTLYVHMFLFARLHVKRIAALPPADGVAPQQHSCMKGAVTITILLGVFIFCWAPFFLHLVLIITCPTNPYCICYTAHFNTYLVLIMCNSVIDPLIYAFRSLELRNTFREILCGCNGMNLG

[7] = molecular target: T4, Muscarinic acetylcholine receptor M2 (Homo sapiens, UniProt P08172); type: functional, cell-based
T4 sequence (P08172 whole entry): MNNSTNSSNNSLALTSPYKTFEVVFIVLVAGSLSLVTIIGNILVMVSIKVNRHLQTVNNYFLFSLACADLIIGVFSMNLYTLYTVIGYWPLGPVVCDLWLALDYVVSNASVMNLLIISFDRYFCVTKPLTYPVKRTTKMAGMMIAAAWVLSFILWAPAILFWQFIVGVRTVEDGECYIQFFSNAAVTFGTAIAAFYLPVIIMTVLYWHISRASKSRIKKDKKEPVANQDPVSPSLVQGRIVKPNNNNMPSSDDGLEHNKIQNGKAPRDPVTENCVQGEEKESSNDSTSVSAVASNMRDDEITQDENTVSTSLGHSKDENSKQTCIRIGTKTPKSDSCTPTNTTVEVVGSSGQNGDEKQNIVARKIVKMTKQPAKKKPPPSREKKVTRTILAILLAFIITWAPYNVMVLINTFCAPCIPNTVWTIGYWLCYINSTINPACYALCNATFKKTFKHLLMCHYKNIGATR

[8] = molecular target: T5, Alpha-2A adrenergic receptor (Homo sapiens, UniProt P08913); type: functional, cell-based
T5 sequence (P08913 whole entry): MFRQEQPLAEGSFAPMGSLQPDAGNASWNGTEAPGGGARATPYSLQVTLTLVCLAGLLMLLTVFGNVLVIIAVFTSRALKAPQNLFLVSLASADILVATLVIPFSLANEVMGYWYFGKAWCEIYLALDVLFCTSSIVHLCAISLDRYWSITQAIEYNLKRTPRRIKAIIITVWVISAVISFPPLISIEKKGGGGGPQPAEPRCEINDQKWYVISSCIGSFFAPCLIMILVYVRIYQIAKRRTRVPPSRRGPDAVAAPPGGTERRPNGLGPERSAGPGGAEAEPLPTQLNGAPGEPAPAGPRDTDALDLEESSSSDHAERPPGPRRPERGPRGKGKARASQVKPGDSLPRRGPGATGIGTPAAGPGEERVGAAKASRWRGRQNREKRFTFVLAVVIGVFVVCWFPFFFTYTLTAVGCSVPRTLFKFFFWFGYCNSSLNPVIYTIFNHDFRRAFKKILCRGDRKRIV

[9] = molecular target: T5, Alpha-2A adrenergic receptor; type: functional, cell-based; remark: listed apart in the source
D(1A) dopamine receptor = D(1A) dopamine receptor (Homo sapiens, UniProt P21728); type: functional, cell-based
Sequence of D(1A) dopamine receptor (P21728 whole entry): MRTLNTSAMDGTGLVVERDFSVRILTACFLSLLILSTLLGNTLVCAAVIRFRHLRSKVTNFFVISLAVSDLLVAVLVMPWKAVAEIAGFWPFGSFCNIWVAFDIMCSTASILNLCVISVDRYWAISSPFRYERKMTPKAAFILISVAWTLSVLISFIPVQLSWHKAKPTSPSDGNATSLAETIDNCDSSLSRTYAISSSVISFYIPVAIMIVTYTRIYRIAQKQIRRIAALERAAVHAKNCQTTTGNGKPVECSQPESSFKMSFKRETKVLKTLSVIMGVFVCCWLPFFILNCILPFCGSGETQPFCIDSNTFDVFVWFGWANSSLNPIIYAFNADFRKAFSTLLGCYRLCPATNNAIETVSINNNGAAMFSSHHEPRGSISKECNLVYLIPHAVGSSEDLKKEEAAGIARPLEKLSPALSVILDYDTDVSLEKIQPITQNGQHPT

[10] = molecular target: 5-hydroxytryptamine receptor 2B (Homo sapiens, UniProt P41595); type: functional, cell-based
Sequence of 5-hydroxytryptamine receptor 2B (P41595 whole entry): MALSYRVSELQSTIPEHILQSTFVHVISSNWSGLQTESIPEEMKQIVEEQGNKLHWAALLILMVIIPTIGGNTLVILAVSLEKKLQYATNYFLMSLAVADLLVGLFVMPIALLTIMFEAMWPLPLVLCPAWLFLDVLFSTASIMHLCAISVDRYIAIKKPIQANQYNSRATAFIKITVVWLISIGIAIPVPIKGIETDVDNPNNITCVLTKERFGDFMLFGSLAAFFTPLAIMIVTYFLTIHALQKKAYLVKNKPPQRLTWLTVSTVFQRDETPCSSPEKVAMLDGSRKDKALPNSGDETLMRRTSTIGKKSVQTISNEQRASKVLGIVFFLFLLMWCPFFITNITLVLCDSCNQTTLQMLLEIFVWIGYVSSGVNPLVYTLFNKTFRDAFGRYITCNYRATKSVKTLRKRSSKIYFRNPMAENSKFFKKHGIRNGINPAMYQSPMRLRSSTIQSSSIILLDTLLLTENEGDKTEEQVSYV
Also: assay procedure not described here.

Sequence of Delta-type opioid receptor (P41143 whole entry): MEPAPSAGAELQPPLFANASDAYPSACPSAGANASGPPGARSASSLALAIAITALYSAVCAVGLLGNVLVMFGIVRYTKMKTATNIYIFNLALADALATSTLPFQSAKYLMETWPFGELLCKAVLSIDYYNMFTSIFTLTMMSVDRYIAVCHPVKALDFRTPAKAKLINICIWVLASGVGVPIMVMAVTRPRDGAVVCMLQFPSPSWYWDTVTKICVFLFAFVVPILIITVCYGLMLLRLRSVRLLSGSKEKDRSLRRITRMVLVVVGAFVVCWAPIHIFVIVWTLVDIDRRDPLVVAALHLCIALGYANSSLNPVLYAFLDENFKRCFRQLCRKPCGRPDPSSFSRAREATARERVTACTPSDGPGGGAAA

| Structure (SMILES) | AC50 [1] [µM] | AC50 (Adenosine receptor A3) [µM] | AC50 (Bile salt export pump) [µM] | AC50 (D(3) dopamine receptor) [µM] | AC50 [2] [µM] | AC50 [3] [µM] | AC50 [4] [µM] | AC50 [5] [µM] | AC50 [6] [µM] | AC50 (Melanocortin receptor 3) [µM] | AC50 [7] [µM] | AC50 [8] [µM] | AC50 [9] [µM] | AC50 (D(1A) dopamine receptor) [µM] | AC50 [10] [µM] |
| --- | --- | --- | --- | --- | --- | --- | --- | --- | --- | --- | --- | --- | --- | --- | --- |
| CN1C(C(=O)Nc2ccccn2)=C(O)c2sc(Cl)cc2S1(=O)=O [LORNOXICAM] | > 30 | > 30 | 32 | > 30 | 22 | > 30 | > 30 | > 10 | > 30 | > 30 | > 10 | > 10 | > 10 | > 10 | > 10 |
| O=C(O[C@H]1C[C@H]2CC[C@@H](C1)[N+]21CCCC1)C(O)(c1ccccc1)c1ccccc1 [TROSPIUM] | > 30 | > 30 | > 300 | > 30 | > 30 | > 30 | > 30 | > 30 | > 30 | > 30 | > 30 | > 30 | > 30 | > 30 | > 30 |
| CCOC(=O)[C@H](CCc1ccccc1)N[C@@H](C)C(=O)N1[C@H](C(=O)O)C[C@@H]2CCC[C@@H]21 | > 30 | > 30 | > 300 | > 10 | > 30 | > 30 | > 10 | > 10 | > 10 | > 30 | > 10 | > 10 | > 10 | > 10 | > 10 |
| Cn1nnc2c(C(N)=O)ncn2c1=O [TEMOZOLOMIDE] | > 30 | > 30 | > 300 | > 30 | > 30 | > 30 | > 30 | > 30 | > 30 | > 30 | > 30 | > 30 | > 30 | > 30 | > 30 |
| CN(C)CCC(c1ccc(Cl)cc1)c1ccccn1 (stereo not given) [CHLORPHENIRAMINE] | > 10 | > 30 | > 300 | > 10 | > 30 | > 10 | 1.46 | > 10 | 7.7 | > 30 | > 10 | > 10 | > 10 | > 10 | > 10 |
| c1cnc(N2CCN(Cc3ccc4c(c3)OCO4)CC2)nc1 [PIRIBEDIL] | > 30 | > 30 | 130 | 7.1 | > 30 | > 30 | > 30 | > 30 | 18 | > 30 | > 30 | > 30 | 0.059 | > 30 | > 30 |
| C[C@@H](O)[C@H]1C(=O)N2C(C(=O)O)=C(S[C@@H]3CN[C@H](C(=O)N(C)C)C3)[C@H](C)[C@H]12 [MEROPENEM] | > 300 | > 300 | > 300 | > 300 | 33.4 | > 300 | > 300 | > 10 | > 300 | > 300 | > 300 | > 300 | > 300 | > 300 | > 300 |
| CC[C@H]1[C@@H](O)[C@@H]2[C@H](CC[C@]3(C)[C@@H]([C@H](C)CCC(=O)O)CC[C@@H]23)[C@@]2(C)CC[C@@H](O)C[C@@H]12 [OBETICHOLIC ACID] | > 30 | 23 | > 300 | > 30 | 27 | > 30 | > 30 | > 30 | > 30 | > 30 | > 30 | > 30 | 11 | > 30 | > 30 |
| CNC(=O)c1ccccc1Sc1ccc2c(/C=C/c3ccccn3)n[nH]c2c1 [AXITINIB] | > 30 | 4.52 | 5.4 | > 30 | > 30 | > 30 | 0.07 | > 30 | > 30 | > 30 | > 30 | > 30 | > 30 | > 30 | > 30 |
| CC1(C)NC(=O)N(c2ccc([N+](=O)[O-])c(C(F)(F)F)c2)C1=O [NILUTAMIDE] | > 30 | > 30 | > 300 | > 30 | > 30 | > 30 | > 30 | > 30 | > 30 | > 30 | > 30 | > 30 | > 30 | > 30 | > 30 |
| CN(C)CCC=C1c2ccccc2C(C)(C)c2ccccc21 | > 30 | > 30 | 130 | 1.89 | > 30 | 5.8 | > 30 | > 30 | 1.05 | 21 | > 10 | > 30 | 6.7 | > 30 | > 30 |
| COc1ccc(CC(C)(C)NC[C@H](O)c2cc(O)cc3c2OCC(=O)N3)cc1 [OLODATEROL] | > 30 | > 30 | > 300 | > 30 | 17.5 | > 30 | 11 | > 30 | > 30 | > 30 | > 30 | > 30 | 10 | > 30 | > 30 |
